Source: US9260439B2, “Dihydropyrrolopyrimidine derivatives” (PFIZER INC., priority 2014, dated 2016)

Molecular target: truncated PI3Kα (p110α/iSH2 p85α) (Homo sapiens (Human), UniProt P42336)
Assay: PI3KA_Act fluorescence polarization kinase assay (Ki)
Type: biochemical
Settings: 1 mM ATP
Summary of the method: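 Ki values result from fitting fluorescence polarization signals to the Morrison equation for tight-binding competitive inhibitors. The detector was GST-Grp1 PH domain with TAMRA-PIP3, read after a 30 min room-temperature reaction of 0.5 nM truncated PI3Kα and 30 μM PIP2 at pH 7.4 in HEPES/NaCl/MgCl2/DTT/CHAPS buffer. Compounds were tested as 12-point 3-fold dilutions from 3 μM.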

Sequence of truncated PI3Kα (p110α/iSH2 p85α) (P42336 whole entry, the tested form may be a part): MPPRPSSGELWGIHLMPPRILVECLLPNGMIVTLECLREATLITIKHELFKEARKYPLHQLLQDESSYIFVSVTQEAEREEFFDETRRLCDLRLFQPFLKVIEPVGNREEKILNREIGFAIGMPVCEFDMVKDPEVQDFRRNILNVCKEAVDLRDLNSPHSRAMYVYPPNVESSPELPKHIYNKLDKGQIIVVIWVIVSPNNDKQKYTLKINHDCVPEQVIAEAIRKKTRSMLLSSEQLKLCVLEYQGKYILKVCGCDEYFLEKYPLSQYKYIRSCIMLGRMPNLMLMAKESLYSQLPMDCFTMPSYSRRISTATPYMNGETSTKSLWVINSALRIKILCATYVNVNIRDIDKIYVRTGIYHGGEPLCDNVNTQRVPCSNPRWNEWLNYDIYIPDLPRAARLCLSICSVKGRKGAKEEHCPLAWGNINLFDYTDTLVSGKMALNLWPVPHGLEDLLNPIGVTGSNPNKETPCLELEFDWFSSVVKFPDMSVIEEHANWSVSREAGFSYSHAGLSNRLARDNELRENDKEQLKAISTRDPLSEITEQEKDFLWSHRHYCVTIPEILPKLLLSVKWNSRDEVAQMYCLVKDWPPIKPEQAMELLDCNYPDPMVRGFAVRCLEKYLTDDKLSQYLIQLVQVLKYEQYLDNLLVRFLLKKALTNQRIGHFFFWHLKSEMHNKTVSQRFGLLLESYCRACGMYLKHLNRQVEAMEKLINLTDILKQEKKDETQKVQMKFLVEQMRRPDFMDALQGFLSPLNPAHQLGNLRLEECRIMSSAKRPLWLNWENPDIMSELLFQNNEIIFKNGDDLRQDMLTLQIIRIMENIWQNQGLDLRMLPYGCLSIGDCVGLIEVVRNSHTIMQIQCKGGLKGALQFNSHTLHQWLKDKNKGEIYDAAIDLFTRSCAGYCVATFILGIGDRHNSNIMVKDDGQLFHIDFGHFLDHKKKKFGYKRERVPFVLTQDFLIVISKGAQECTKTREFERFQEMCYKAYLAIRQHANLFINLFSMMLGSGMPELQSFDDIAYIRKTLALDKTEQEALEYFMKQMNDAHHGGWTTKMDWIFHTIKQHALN

| Compound | PI3KA_Act Ki |
| --- | --- |
| C[C@]1(N2CCc3c(-c4cnc(N)nc4)nc(N4CCOCC4)nc32)CCN(C(=O)[C@H](N)C2CC2)C1.Cl [Example 297, (2R)-2-amino-1-{(3S)-3-[4-(2-aminopyrimidin-5-yl)-2-(morpholin-4-yl)-5,6-dihydro-7H-pyrrolo[2,3-d]pyrimidin-7-yl]-3-methylpyrrolidin-1-yl}-2-cyclopropylethanone hydrochloride] | 0.019 nM |
| CNCC(=O)N1CC[C@](C)(N2CCc3c(-c4cnc(N)nc4)nc(N4CCOCC4)nc32)C1 [Example 298, 1-{(3S)-3-[4-(2-aminopyrimidin-5-yl)-2-(morpholin-4-yl)-5,6-dihydro-7H-pyrrolo[2,3-d]pyrimidin-7-yl]-3-methylpyrrolidin-1-yl}-2-(methylamino)ethanone] | <0.018 nM |
| CN(C)CC(=O)N1CC[C@](C)(N2CCc3c(-c4cnc(N)nc4)nc(N4CCOCC4)nc32)C1 [Example 299, 1-{(3S)-3-[4-(2-aminopyrimidin-5-yl)-2-(morpholin-4-yl)-5,6-dihydro-7H-pyrrolo[2,3-d]pyrimidin-7-yl]-3-methylpyrrolidin-1-yl}-2-(dimethylamino) ethanone] | <0.018 nM |
| CN(C)CC(=O)N1CC[C@@](C)(N2CCc3c(-c4cnc(N)nc4)nc(N4CCOCC4)nc32)C1 [Example 300, 1-{(3R)-3-[4-(2-aminopyrimidin-5-yl)-2-(morpholin-4-yl)-5,6-dihydro-7H-pyrrolo[2,3-d]pyrimidin-7-yl]-3-methylpyrrolidin-1-yl}-2-(dimethylamino) ethanone] | 0.669 nM |
| C[C@H](C(=O)N1CC[C@](C)(N2CCc3c(-c4cnc(N)nc4)nc(N4CCOCC4)nc32)C1)N(C)C [Example 301, (2R)-1-{(3S)-3-[4-(2-aminopyrimidin-5-yl)-2-(morpholin-4-yl)-5,6-dihydro-7H-pyrrolo[2,3-d]pyrimidin-7-yl]-3-methylpyrrolidin-1-yl}-2-(dimethylamino) propan-1-one] | 0.073 nM |
| CC(C(=O)N1CC[C@](C)(N2CCc3c(-c4cnc(N)nc4)nc(N4CCOCC4)nc32)C1)N(C)C (stereo partly drawn) [Example 302, 1-{(3S)-3-[4-(2-aminopyrimidin-5-yl)-2-(morpholin-4-yl)-5,6-dihydro-7H-pyrrolo[2,3-d]pyrimidin-7-yl]-3-methylpyrrolidin-1-yl}-2-(dimethylamino) propan-1-one] | 0.038 nM |
| CNC(C)(C)C(=O)N1CC[C@](C)(N2CCc3c(-c4cnc(N)nc4)nc(N4CCOCC4)nc32)C1.Cl [Example 303, 1-{(3S)-3-[4-(2-aminopyrimidin-5-yl)-2-(morpholin-4-yl)-5,6-dihydro-7H-pyrrolo[2,3-d]pyrimidin-7-yl]-3-methylpyrrolidin-1-yl}-2-methyl-2-(methylamino) propan-1-one hydrochloride] | 0.025 nM |
| CN(C)C(C)(C)C(=O)N1CC[C@](C)(N2CCc3c(-c4cnc(N)nc4)nc(N4CCOCC4)nc32)C1 [Example 304, 1-{(3S)-3-[4-(2-aminopyrimidin-5-yl)-2-(morpholin-4-yl)-5,6-dihydro-7H-pyrrolo[2,3-d]pyrimidin-7-yl]-3-methylpyrrolidin-1-yl}-2-(dimethylamino)-2-methylpropan-1-one] | <0.018 nM |
| CC(C)(CN)C(=O)N1CC[C@](C)(N2CCc3c(-c4cnc(N)nc4)nc(N4CCOCC4)nc32)C1.Cl [Example 305, 3-amino-1-{(3S)-3-[4-(2-aminopyrimidin-5-yl)-2-(morpholin-4-yl)-5,6-dihydro-7H-pyrrolo[2,3-d]pyrimidin-7-yl]-3-methylpyrrolidin-1-yl}-2,2-dimethylpropan-1-one hydrochloride] | 0.036 nM |
| CNCC(C)(C)C(=O)N1CC[C@](C)(N2CCc3c(-c4cnc(N)nc4)nc(N4CCOCC4)nc32)C1.Cl [Example 306, 1-{(3S)-3-[4-(2-aminopyrimidin-5-yl)-2-(morpholin-4-yl)-5,6-dihydro-7H-pyrrolo[2,3-d]pyrimidin-7-yl]-3-methylpyrrolidin-1-yl}-2,2-dimethyl-3-(methylamino) propan-1-one hydrochloride] | <0.018 nM |
| C[C@]1(N2CCc3c(-c4cnc(N)nc4)nc(N4CCOCC4)nc32)CCN(C(=O)C(F)(F)CN)C1.Cl [Example 307, 3-amino-1-{(3S)-3-[4-(2-aminopyrimidin-5-yl)-2-(morpholin-4-yl)-5,6-dihydro-7H-pyrrolo[2,3-d]pyrimidin-7-yl]-3-methylpyrrolidin-1-yl}-2,2-difluoropropan-1-one hydrochloride] | <0.018 nM |
| C[C@@]1(N2CCc3c(-c4cnc(N)nc4)nc(N4CCOCC4)nc32)CCN(C(=O)CC(F)(F)F)C1 [Example 308, 1-{(3R)-3-[4-(2-aminopyrimidin-5-yl)-2-(morpholin-4-yl)-5,6-dihydro-7H-pyrrolo[2,3-d]pyrimidin-7-yl]-3-methylpyrrolidin-1-yl}-3,3,3-trifluoropropan-1-one] | 0.126 nM |
| C[C@]1(N2CCc3c(-c4cnc(N)nc4)nc(N4CCOCC4)nc32)CCN(C(=O)CC(F)(F)F)C1 [Example 309, 1-{(3S)-3-[4-(2-aminopyrimidin-5-yl)-2-(morpholin-4-yl)-5,6-dihydro-7H-pyrrolo[2,3-d]pyrimidin-7-yl]-3-methylpyrrolidin-1-yl}-3,3,3-trifluoropropan-1-one] | 0.056 nM |
| CC(C)[C@@H](N)C(=O)N1CC[C@](C)(N2CCc3c(-c4cnc(N)nc4)nc(N4CCOCC4)nc32)C1.Cl [Example 310, (2R)-2-amino-1-{(3S)-3-[4-(2-aminopyrimidin-5-yl)-2-(morpholin-4-yl)-5,6-dihydro-7H-pyrrolo[2,3-d]pyrimidin-7-yl]-3-methylpyrrolidin-1-yl}-3-methylbutan-1-one hydrochloride] | 0.022 nM |
| C[C@]1(N2CCc3c(-c4cnc(N)nc4)nc(N4CCOCC4)nc32)CCN(C(=O)[C@@](C)(N)C(F)(F)F)C1.Cl [Example 311, (2R)-2-amino-1-{(3S)-3-[4-(2-aminopyrimidin-5-yl)-2-(morpholin-4-yl)-5,6-dihydro-7H-pyrrolo[2,3-d]pyrimidin-7-yl]-3-methylpyrrolidin-1-yl}-3,3,3-trifluoro-2-methylpropan-1-one hydrochloride] | 0.054 nM |
| C[C@]1(N2CCc3c(-c4cnc(N)nc4)nc(N4CCOCC4)nc32)CCN(C(=O)[C@](C)(N)C(F)(F)F)C1.Cl [Example 312, (2S)-2-amino-1-{(3S)-3-[4-(2-aminopyrimidin-5-yl)-2-(morpholin-4-yl)-5,6-dihydro-7H-pyrrolo[2,3-d]pyrimidin-7-yl]-3-methylpyrrolidin-1-yl}-3,3,3-trifluoro-2-methylpropan-1-one hydrochloride] | 0.037 nM |
| C[C@]1(N2CCc3c(-c4cnc(N)nc4)nc(N4CCOCC4)nc32)CCN(C(=O)[C@@H](N)C(F)(F)F)C1.Cl [Example 313, (2R)-2-amino-1-{(3S)-3-[4-(2-aminopyrimidin-5-yl)-2-(morpholin-4-yl)-5,6-dihydro-7H-pyrrolo[2,3-d]pyrimidin-7-yl]-3-methylpyrrolidin-1-yl}-3,3,3-trifluoropropan-1-one hydrochloride] | 0.128 nM |
